We go through two molecules from PubChem BioAssay (NCI).

Holding throughout (assay): NCI tumour cell line growth inhibition, 48 h
The subject of test [1] is MCF7 breast.
In test [2] the test system is HL-60(TB) leukemia.
Test [3] has as its system HOP-62 NSCLC.
In test [4] the test system is A498 renal.
The subject of test [5] is NCI-H522 lung.
Test [6] deals with BT-549 breast.
In test [7] the test system is DU-145 prostate.
Test [8] relates to ACHN renal.
Test [9] concerns KM20L2 colon.
Test [10] has as its system U251 CNS.
Test [11] relates to HCC-2998 colon.

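Growth conditions: 96-well plates. Treatment: test compound, 48 hours, 5 concentrations. Analysis: linear interpolation between bracketing concentrations; unreached endpoints set to highest concentration. GI50: concentration for 50% inhibition of growth. TGI marks complete inhibition of growth.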

As to `C=C1CC[C@@]2(C)[C@@H]([C@@H]1C)[C@H]1CC[C@@H]3[C@@]4(C)CC[C@H](O)C(C)(C)[C@@H]4CC[C@@]3(C)[C@]1(C)C[C@@H]2O`, the TGI in test [1] was 9.23 µM; in test [2] it was more than 55.7 µM; in test [3] it was 9.18 µM; in test [4], 4.35 µM; in [5], 4.52 µM; in test [6], 34.6 µM. Besides, the TGI was 17.5 µM in test [7] and 4.44 µM in test [8].

For `O=C([CH-]C(=O)c1ccccc1)c1ccccc1.[C-]#[O+].[C-]#[O+].[Ir]`, the GI50 is 39.7 µM in [9], 36.4 µM in [10] and more than 100 µM in test [11]. For the same molecule, the TGI in test [9], in test [10] and in test [11] was more than 100 µM in each case.
